Experiments:
Raptor-Ser792 = Raptor-Ser792 phosphorylation in LT-CML cancer stem cells; type: cell-based, mouse; details: LT-CML cancer stem cells in vitro
Smad3 Ser208 = assay: Duolink in situ PLA, Smad3 Ser208 phosphorylation in LT-CML cancer stem cells; type: cell-based, mouse; details: 30 min; GlySar or cefadroxil 5 μM; rapamycin 100 nM
Method: (§1) To examine phosphorylation of Smad2, Smad3, p38MAPK, AMPK, and S6 ribosomal protein, and Foxo3a-Smad2 and Foxo3a-Smad3 interactions, Duolink® in situ PLA assay (Olink Bioscience) was used. LT-CML stem cells, ST-CML stem cells, CD48^+, MPP, and KLS^− CML cells that were freshly isolated from CML-affected mice, and LT-normal HSCs that were freshly isolated from healthy control littermates, were immediately fixed with 4% paraformaldehyde for 30 min.
(§2) For in vitro inhibitor experiments, LT-CML stem cells were incubated in 3% O2 at 37° C. for 30 min with vehicle (control; artificial gastric fluid solution (900 ml ddH2O containing 2.0 g of NaCl, 7 ml of conc. HCl and 3.2 g of pepsin)), 5 μM Ly364947 (TGF-β type I receptor kinase Alk5 inhibitor; Merck), 5 μM SB203580 (p38MAPK inhibitor; LC Laboratories), 5 μM GlySar (dipeptide transporter inhibitor; Sigma-Aldrich), 5 μM cefadroxil (dipeptide transporter inhibitor; Sigma-Aldrich), or 100 nM rapamycin (mTORC1 inhibitor; Cell Signaling Technologies). Treated cells were fixed with 4% paraformaldehyde for 30 min, and treated with 0.25% Triton X-100 for 15 min, washed and blocked by incubation in 5% FBS in TBS for 1 hr.
(§3) The proximate binding of these antibodies was then detected using Duolink® in situ PLA system which employs a set of two secondary antibodies in which one is conjugated to a minus strand PLA probe and the other is conjugated to a plus strand PLA probe. Nuclei were stained with DNA marker DAPI (Sigma). Stained slides were mounted using Fluoromount Plus (Diagnostic Biosystems) and fluorescent images were acquired by confocal microscopy (FV10i, Olympus) and Photoshop software (Adobe). The number of fluorescent foci per single cell was quantified using Duolink®Image Tool software (Olink Bioscience).

Raptor-Ser863 = assay: Duolink in situ PLA, Raptor-Ser863 phosphorylation in LT-CML cancer stem cells; type: cell-based, mouse; details: 30 min; GlySar or cefadroxil 5 μM; rapamycin 100 nM
Method: as §1
as §2, with “Treated cells were fixed with 4% paraformaldehyde for 30 min, and treated with 0.25% Triton X-100 for 15 min, washed and blocked by incubation in 5% FBS in TBS for 1 hr.” left out
(§4) The proximate binding of these antibodies was then detected using Duolink® in situ PLA system which employs a set of two secondary antibodies in which one is conjugated to a minus strand PLA probe and the other is conjugated to a plus strand PLA probe. […] The number of fluorescent foci per single cell was quantified using Duolink®Image Tool software (Olink Bioscience).

[1] = tested on: Foxo3a-/- LT-CML cancer stem cells; assay: Colony-forming capacity of Foxo3a-/- LT-CML cancer stem cells; type: cell-based, mouse; details: cefadroxil treatment in vitro
Method: To establish our Foxo3a-deficient tet-inducible CML mouse model, Foxo3a-deficient mice 42 (C57BL/6; F5) were crossed with Tal-tTA and TRE-BCR-ABL1 transgenic mice that were backcrossed for five generations in the C57BL/6 background, respectively. LT-CML stem cells or LT-normal HSCs (1×10^3/plate) were co-cultured on OP-9 stromal cells for 5 days in the presence of either vehicle (control) or a dipeptide transporter inhibitor cefadroxil (5 μM). Cells were harvested, washed with PBS, and plated in semi-solid methylcellulose medium containing SCF, IL-3, IL-6 and erythropoietin (Methocult GF M3434; Stem Cell Technologies). After growth for 7 days in a humidified atmosphere containing 5% CO2 at 37° C., colony numbers were counted under a light microscope.

normal HSCs = details: mouse, in vivo
Description: C57BL/6 (CD45.2 for the Ly5 locus) and congenic C57BL/6 (CD45.1 for the Ly5 locus; B6-Ly5.1) mice were purchased from Sankyo-Lab Service (Tsukuba, Japan). Lethally irradiated (9 Gy) C57BL/6 (CD45.2) recipient mice were reconstituted with 1×10^4 normal KLS^+ cells (HSCs) from congenic C57BL/6 (CD45.1) (B6-Ly5.1) mice in competition with 5×10^5 unfractionated BM MNCs derived from C57BL/6 (CD45.2) mice. Transplanted recipients then received vehicle or cefadroxil (36 mgKg^−1day^−1) from day 0 to 8 weeks post transplantation. Reconstitution of donor-derived cells (CD45.1) was monitored at 4 and 8 weeks post transplantation by flow cytometric analysis of peripheral blood mononuclear cells stained with monoclonal antibodies (mAbs) against CD45.2 (104)-FITC and CD45.1 (A20)-PE.

[2] = tested on: human CD34+CD38-Lin- CML-LICs; assay: Colony-forming capacity of human CML leukemia-initiating cells; type: cell-based; details: 5 μM cefadroxil, 5 days, three patients
Description: Viable BM MNCs from three human patients with chronic phase CML were purchased from All cells (#06-255, #06-620, and #147742, Alameda, Calif., USA). Documents confirming the informed consent of the patient are available in http://www.veritastk.co.jp/attached/3978/AllCells_BM_Informed_Consent_Form.pdf. These cells were stained with anti-CD34(8G12), anti-CD38(HIT2), anti-CD3(SK7), anti-CD16(3G8), anti-CD19(SJ25C1), anti-CD20(L27), anti-CD14(MpP9), and anti-CD56(NCAM16.2) antibodies (all purchased from BD Biosciences). A mixture of mAbs recognizing CD3, CD16, CD19, CD20, CD14 and CD56 was used to identify Lin^− cells, and CD34^+CD38^−Lin^− cells were purified. To determine the effects of treatment with cefadroxil (5 μM) alone, or with a combination of cefadroxil+IM (1 μM; Axon Medchem) or dasatinib (500 nM; LC laboratories), CD34^+CD38^−Lin^− cells were cultured on OP-9 stromal cells under hypoxic (3% O2) conditions. After harvesting and washing with PBS, the colony-forming ability of the most primitive human CML leukemia-initiating cells (LICs) was evaluated by culture in semi-solid methylcellulose medium containing SCF, GM-CSF, IL-3, IL-6, G-CSF, and erythropoietin (Methocult GF+ H4435; Stem Cell Technologies). After growth for 7 days at 37° C. under hypoxic (3% O2) conditions, colony numbers were counted under a light microscope.

AMPK = assay: Duolink in situ PLA, AMPK phosphorylation in LT-CML cancer stem cells; type: cell-based, mouse; details: LT-CML cancer stem cells in vitro
Method: as §1, §2, §3

CML-KLS+ cells = assay: Serial transplantation of CML stem cells; type: in vivo, mouse
Method: To evaluate the retention of the disease-initiating capacity by CML stem cells after treatment of mice with cefadroxil […] and/or IM in vivo, the number of GFP/BCR-ABL1+CMLKLS^+ cells in treated BCR-ABL1 CML-affected mice was determined, and subsequent secondary transplantation of the cells was performed. Briefly, CML-affected mice received by oral gavage for 30 days post BM transplantation as described above. The number of GFP/BCR-ABL1+CML-KLS+ cells among total GFP/BCR-ABL1+CML cells isolated from BM MNCs acquired from the two hindlimbs of treated CML-affected mice was assessed by flow cytometry. Freshly purified GFP/BCR-ABL1^+CML-KLS^+ cells (3×10^4) were then serially transplanted into a second set of lethally irradiated congenic recipient mice along with 5×10^5 normal BM MNCs derived from C57BL/6 mice. Mouse survival and disease recurrence were monitored for 90 days.

S6 ribosomal protein = assay: Duolink in situ PLA, S6 ribosomal protein phosphorylation in LT-CML cancer stem cells; type: cell-based, mouse; details: 30 min; GlySar or cefadroxil 5 μM; rapamycin 100 nM
Method: as §1
as §2, with “Treated cells were fixed with 4% paraformaldehyde for 30 min, and treated with 0.25% Triton X-100 for 15 min, washed and blocked by incubation in 5% FBS in TBS for 1 hr.” left out
as §4

`CC1=C(C(=O)O)N2C(=O)[C@@H](NC(=O)[C@H](N)c3ccc(O)cc3)[C@H]2SC1` [cefadroxil] was tested, and the Raptor-Ser792 phosphorylation (Raptor-Ser792) was “did not promote”, the “Smad3 Ser208 phosphorylation” value (Smad3 Ser208) was “blocked” and the “phosphorylation of Raptor-Ser863” value (Raptor-Ser863) was “decreased phosphorylation”. For the same compound, the “number of colonies formed by Foxo3a-/- LT-CML cancer stem cells” value [1] was “not altered”, the “frequency of donor-derived CD45.1 MNCs in peripheral blood” value (normal HSCs) was “no increase” and the “colony-forming capacity of human CML-LIC samples” value [2] was “suppressed”. For the same compound, the “phosphorylation of AMPK” value (AMPK) was “increased”, the “ability of CML-KLS+ cells from treated mice to drive BCR-ABL1+ disease in new recipients” value (CML-KLS+ cells; 3x10^4 cells per recipient, donors treated with cefadroxil) was “completely lost their ability” and the “survival of new recipient mice” value (CML-KLS+ cells; recipients of CML-KLS+ cells from cefadroxil-treated mice) was “over 90 days”. For the same compound, the “phosphorylation of S6” value (S6 ribosomal protein) was “decreased phosphorylation”.
